Laboratory results published in publication PMC6240096, “A hPSC-based platform to discover gene-environment interactions that impact human β-cell and dopamine neuron survival” (Nature Communications, 2018).

Columns and labels:
[1] = system: MYH6:mCherry+ cardiomyocytes; experiment: Inhibition curve on hESC-derived cardiomyocytes; assay type: cell-based, human; conditions: cell survival rate, 4 days, n=3
Method: hESCs-derived INS^+ cells, MSCs[43], neurons, and hepatocytes[44] were derived based on the reported protocols and re-plated on 96-well plates with Accutase digestion. Cardiomyocytes (CMs) were differentiated from H9-MYH6: mCherry reporter line, based on the reported protocol. After overnight incubation, cells were treated with DMSO or different doses of hit compounds for 4 days. After fixation, the cells were stained with markers for each cell type. DAPI was used to stain cell nuclei. Plates were analyzed by ImageXpress^MICRO Automated High-Content Analysis System.
Supplementary Figure 4. Assessment of the toxic effect of propargite on different type […]
(a) Flow cytometry char acterization of CD29+ and CD73+ mesenchymal stem cells (MSCs) derived from H1 hESCs. (b-c) microscope image (b) and flow cytometry (c) characterization of cardiomyocytes expressing MYH6+ derived from a MYH6:mCherry reporter hESC line. (d-e) Immunocytochemistry characterization of MAP2+/TUJ1+ and HuC/D+/MAP2+ neurons (d) and A1AT+/ASGPR1+ hepatocytes (e) derived from H1 hESCs. All the cells were counterstained by DAPI (blue). Scale bars, 100 µm. (f) Inhibition curve of propargite on pancreatic β-like cells, MSCs, cardiomyocytes, neurons, and hepatocytes derived from hESCs, and BJ-fibroblasts (n=3). Values presented as mean±S.D. […]

[2] = system: MIN6 cells; experiment: Autophagy marker LC3-II western blotting; assay type: cell-based, mouse; conditions: 0.8 µM or 1.6 µM propargite
Source text: To extract intracellular protein, cells were placed on ice, washed twice with ice-cold PBS and lysed immediately with RIPA buffer (Life Technologies, 89900) supplemented with a protease inhibitor cocktail (Life Technologies, 78440). Cell lysates were then sonicated and the soluble fraction was collected after centrifugation. Protein amount was quantified by the BCA protein assay (Life Technologies, 23227). To extract extracellular HMGB1, tissue culture media were collected and concentrated using Afyon SDS-PAGE sample preparation kit (advansta, K-02101-025). 20 μg of total protein for each sample was mixed with loading buffer and incubated for 5 min at 95 °C before being loaded into NuPAGE® Novex® 4–12% […] Protein Gels (Life Technologies, NP0321BOX) for electrophoresis. Separated proteins were transferred to a PVDF membrane (Millipore, IPSN07852) after electrophoresis. […] ECL signals were developed and detected using the SuperSignal™ West Femto Maximum Sensitivity Substrate (Life Technologies, 34094) and a C-DiGit Chemiluminescent Western Blot Scanner (LI-COR). […]
cells. (b, c) Flow cytometry analysis (b) and quantification (c) of the percentage of […]
Etoposide was used as a positive control. Values presented as mean±S.D. (d, e) Immunocytochemistry analysis (d) and quantification (e) of the percentage of Active Caspase-3+ cells in 1.6 µM propargite treated MIN6 cells (n=3). […]

2-(4-tert-butylphenoxy)-cyclohexyl prop-2-yne-1-sulfonate [propargite]
IC50 [1]: 29 µM
relative levels of LC3-II [2]: no significant increase
